What was measured:
[1] = tested on: HT-22 (murine hippocampal) cells; settings: cited from earlier work; for neuroprotection against toxicity, in words: compared with βE2 or parent compound, ref Perez et al., 2005b; for neuroprotection of non-phenolic estrogens, in words: all of the structure-activity studies
uterine weights = assay: Uterine weight; settings: 1 day of exposure
HT-22 cells = assay: DCF assay of reactive oxygen species, glucose oxidase insult; type: cell-based; settings: HT-22 cells insulted with glucose oxidase
[2] = tested on: lipid peroxidation in rat brain homogenates; settings: read-out: IC50 of lipid peroxidation seen by other groups; ref Hall et al., 1991; cited from earlier work
[3] = tested on: HT-22 (murine hippocampal) cells; assay: Neuroprotection against glutamate toxicity, calcein-AM viability assay; type: cell-based; settings: 10 μM concentration, paradigm of Behl's group (1997)
[4] = tested on: HT-22 (murine hippocampal) cells; settings: cited from earlier work
ERβ = settings: competitive binding; ref Perez et al. (2005b); cited from earlier work
ERα = settings: competitive binding; ref Perez et al. (2005b); cited from earlier work
[5] = tested on: SK-N-SH neuroblastoma cells; settings: up to 200 nM; ref Green et al. (1997b); cited from earlier work
[6] = tested on: HT-22 (murine hippocampal) cells; type: cell-based; settings: insult not named

## C[C@]12CC[C@@H]3c4ccc(O)cc4CC[C@H]3[C@@H]1CC1(CCCC1)C2=O [ZYC2]
[1]
  neuroprotection against toxicity, in words: did not enhance neuroprotection

## C[C@]12CC(O)[C@@H]3c4ccc(O)cc4CC[C@H]3[C@@H]1CCC2=O (stereo partly shown) [Compound E1240]
[1]
  neuroprotection against toxicity, in words: neuroprotection was completely abolished

## C#C[C@]1(O)CC[C@H]2[C@@H]3CCc4cc(OC)ccc4[C@H]3CC[C@@]21C [mestranol]
[1]
  neuroprotection of non-phenolic estrogens, in words: did not have protect effects

## C[C@]12CC[C@@H]3c4ccc(O)cc4CC[C@H]3[C@@H]1CCC2=O [Compound E1, estrone]
Uterine weights
  increase of uterine weights: 71%

## CC12CCC3c4ccc(O)cc4CCC3C1CCC2O (stereo not shown) [PS2]
[1]
  neuroprotection against toxicity, in words: reduced neuroprotective potencies

## C[C@]12CC[C@@H]3c4ccc(O)cc4CC[C@H]3[C@@H]1CC[C@@H]2OC(=O)c1ccccc1 [ZYC30]
[1]
  neuroprotection against toxicity, in words: decreased the potency of the parent compound

## C[C@]12CC[C@@H]3c4ccc(O)cc4CC[C@H]3[C@@H]1CC[C@@H]2O [βE2, 17β-estradiol]
HT-22 cells
  decrease of ROS: not able to significantly decrease ROS
[2]
  IC50: 21 µM
[3]
  protection against glutamate toxicity at fixed concentration: protective

## C#C[C@]1(O)CC[C@H]2[C@@H]3CCc4cc(OC5CCCC5)ccc4[C@H]3CC[C@@]21C [quinestrol]
[1]
  neuroprotection of non-phenolic estrogens, in words: did not have protect effects

## CC(=O)[C@H]1CC[C@H]2[C@@H]3CC[C@@H]4C[C@H](O)CC[C@]4(C)[C@H]3CC[C@]12C [pregnanolone]
[4]; 10 μM dose, ref Gursoy et al. (2001)
  protection against glutamate insult at high dose: no protection
[4]; ref Gursoy et al. (2001)
  concentration of optimal protection against glutamate insult: 500 nM

## COc1cc2c(cc1C13CC4CC(CC(C4)C1)C3)[C@H]1CC[C@]3(C)[C@@H](O)CC[C@H]3[C@@H]1CC2 [ZYC23, 3-O-methyl analog of (17beta)-2-(1-adamantyl)estradiol]
[1]
  neuroprotection against toxicity, in words: failed to protect cells against toxicity induced cell death

## CCC(C)c1c(O)ccc2c1CC[C@@H]1[C@@H]2CC[C@]2(C)C(=O)CC[C@@H]12 (stereo partly shown) [ZYC17]
ERβ
  ERβ binding, in words: completely inhibited estrogen receptor binding
ERα
  ERα binding, in words: completely inhibited estrogen receptor binding

## CC(=O)[C@H]1CC[C@H]2[C@@H]3CCC4=CC(=O)CC[C@]4(C)[C@H]3CC[C@]12C [progesterone]
[4]; 10 μM, ref Behl et al. (1997)
  neuroprotection against glutamate insult: did not find 10 μM progestrone (P4) to be neuroprotective
[5]
  protection against serum deprivation: did not find progesterone to be protectiive

## C[C@]12CC=C3c4ccc(O)cc4CC[C@H]3[C@@H]1CC[C@@H]2O [ZYC1]
ERβ
  ERβ binding, in words: did not drastically change the affinity
ERα
  ERα binding, in words: did not drastically change the affinity

## Cc1c(O)c(C23CC4CC(CC(C4)C2)C3)cc2c1CC[C@@H]1[C@@H]2CC[C@]2(C)C(=O)CC[C@@H]12 [ZYC26, 2-(1-adamantyl)-4-methylestrone]
ERβ
  ERβ binding, in words: completely abolished the affinity
ERα
  ERα binding, in words: completely abolished the affinity
[6]; first of two values given 'respectively'
  fold decrease in EC50 for protection against neurotoxicity, first value: approximately 9 fold
[6]; second of two values given 'respectively'
  fold decrease in EC50 for protection against neurotoxicity, second value: ~4 fold

## C[C@]12CC[C@@H]3c4ccc(O)cc4CC[C@H]3[C@@H]1CC[C@H]2O [αE2]
ERβ
  ERβ binding, in words: less affinity
ERα
  ERα binding, in words: less affinity

— article PMC3048764 (Brain research, 2010)
